pKi: −log10 of the molar value.
Assays:
[1] = Displacement of [3H]ketanserin from 5HT2A receptor in rabbit cerebral cortex membrane; assay type: cell membranes, Oryctolagus cuniculus
[2] = target: T1, 5-hydroxytryptamine receptor 2A (Rattus norvegicus, UniProt P14842); experiment: Displacement of [3H]ketanserin from rat 5HT2A receptor expressed in mouse NIH3T3 cells; assay type: cell-based
[3] = target: T1, 5-hydroxytryptamine receptor 2A; experiment: Displacement of [3H]ketanserin from 5HT2A receptor in rat brain membrane; assay type: cell membranes

T1 sequence (P14842 whole entry): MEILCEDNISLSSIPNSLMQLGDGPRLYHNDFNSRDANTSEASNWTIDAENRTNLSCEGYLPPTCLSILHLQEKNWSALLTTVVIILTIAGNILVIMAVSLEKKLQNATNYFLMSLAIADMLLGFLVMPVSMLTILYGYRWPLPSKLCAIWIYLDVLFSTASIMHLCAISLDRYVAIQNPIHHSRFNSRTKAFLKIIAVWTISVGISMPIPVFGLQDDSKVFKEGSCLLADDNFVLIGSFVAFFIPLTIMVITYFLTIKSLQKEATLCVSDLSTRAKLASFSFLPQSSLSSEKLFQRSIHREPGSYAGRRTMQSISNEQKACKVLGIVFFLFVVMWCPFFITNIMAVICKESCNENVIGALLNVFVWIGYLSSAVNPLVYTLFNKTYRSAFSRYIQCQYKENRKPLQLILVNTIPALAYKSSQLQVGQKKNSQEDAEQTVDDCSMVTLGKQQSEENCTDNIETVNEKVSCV

| Compound | pKi [1] | pKi [2] | pKi [3] |
| --- | --- | --- | --- |
| C=C1C(=O)O[C@@H]2C3O[C@]3(C)CC/C=C(\C)CC[C@@H]12 (some centres undefined) | 3.64 | 4.00 | 3.60 |
| CN1C[C@@H](NS(=O)(=O)N(C)C)C[C@@H]2c3cccc4c3c(cn4C)C[C@H]21 [MESULERGINE] | 8.08 | – | – |

From ChEMBL document CHEMBL1145714, “Activity of Parthenolide at 5HT2A receptors” (J Nat Prod, 1997)
